Tested on: ApoE/LDLR−/− mice
Assay: Example 3 first part: MRI assessment of endothelium-dependent vasodilatation (FMD in FA, Ach in AA), young mice
Assay type: in vivo
Method: Mice were randomly assigned to one of four experimental groups: control (untreated group) and three groups treated with vitamin K2 at a dose of 0.05, 0.5, and 5 mg/kg b.w./day, respectively. End-point measurements were performed at the age of 10-16 weeks.
Magnetic resonance imaging (MRI) experiments were performed using a 9.4T scanner (BioSpec 94/20 USR, Bruker, Germany) located in the Department of Magnetic Resonance Imaging, Institute of Nuclear Physics, Polish Academy of Sciences in Krakow. During the experiment, mice were anaesthetized using isoflurane (Aerrane, Baxter Sp. z o. o., Poland, 1.7 vol %) in an oxygen and air (1:2) mixture and imaged in the supine position. Activity of the heart, respiration, and body temperature (maintained at 37° C. using circulating warm water) were monitored using a Monitoring and Gating System (SA Inc., Stony Brook, N.Y., USA).
Endothelial function was assessed based on vascular responses to acetylcholine (Ach) administration in brachiocephalic artery (BCA), left common carotid artery (LCA) (FIGS. 6 A and B) and abdominal aorta (AA) (FIG. 6C) as well as to responses to increase in flow (flow-mediated dilatation, FMD) in femoral artery (FA) (FIG. 6D) as described in Bar A, Skorka T, Jasinski K, Sternak M, Bartel Z, Tyrankiewicz U, et al. Retrospectively-gated MRI for in vivo assessment of endothelium-dependent vasodilatation and endothelial permeability in murine models of endothelial dysfunction. NMR Biomed 2016; 29(8):1088.; Sternak M, Bar A, Adamski M G, Mohaissen T, Marczyk B, Kieronska A, et al. The Deletion of Endothelial Sodium Channel α (αENaC) Impairs Endothelium-Dependent Vasodilation and Endothelial Barrier Integrity in Endotoxemia in Vivo. Front Pharmacol 2018; 9:178. doi:10.3389/fphar.2018.00178.; and Bar A, Olkowicz M, Tyrankiewicz U, Kus E, Jasinski K, Smolenski R T, et al. Functional and Biochemical Endothelial Profiling In Vivo in a Murine Model of Endothelial Dysfunction; Comparison of Effects of 1-Methylnicotinamide and Angiotensin-converting Enzyme Inhibitor. Front Pharmacol 2017; 8:183. doi:10.3389/fphar.2017.00183.).
Vasomotor response was examined by comparing two time-resolved 3D images of the vessels prior to and 25 minutes after intraperitoneal Ach administration (Sigma-Aldrich, Poznan Poland: 50 μl, 16.6 mg/kg), as well as prior to and 5 minutes after vessel occlusion. Images were acquired using the cine IntraGate™ FLASH 3D sequence, reconstructed with the IntraGate 1.2.b.2 macro (Bruker). End-diastolic volumes of vessels were analyzed using ImageJ software 1.46r (NIH Bethesda, Md., USA) and scripts written in Matlab (MathWorks, Natick, Mass., USA). Imaging parameters included the following: repetition time (TR)—6.4 ms, echo time (TE)—1.4 ms, field of view (FOV)—30×30×5 mm3, matrix size—256×256×30, flip angle (FA)—30°, and number of accumulations (NA)—15, reconstructed to 7 cardiac frames. Total scan time was 10 minutes.

[1] = 0.05 mg/kg b.w./day, eight weeks
[2] = 0.05 mg/kg b.w./day, four weeks, 15-week-old mice

## CC(C)=CCC/C(C)=C/CC/C(C)=C/CC/C(C)=C/CC/C(C)=C/CC/C(C)=C/CC/C(C)=C/CC1=C(C)C(=O)c2ccccc2C1=O [MK-7, menaquinone-7]
[1]
  Ach response in AA, volume change: −0.65%
  FMD in FA, volume change: 28.34%
[2]
  Ach response in AA, volume change: −1.59%
  FMD in FA, volume change: 33.26%
0.05 mg/kg b.w./day, two weeks
  endothelial function (FMD-FA and ACH-AA): not sufficient to improve endothelial function
0.5 mg/kg b.w./day, two weeks
  Ach response in AA, volume change: 1.52%
  FMD in FA, volume change: 28.57%
5 mg/kg b.w./day, two weeks
  Ach response in AA, volume change: 0.16%
  FMD in FA, volume change: 26.55%
0.5 and 5 mg/kg b.w./day, four weeks
  improvement in endothelial function compared with low dose for 4 weeks: not superior
